Data on 5 compounds can be found in PMC9698340, “Discovery and SAR Study of Quinoxaline–Arylfuran Derivatives as a New Class of Antitumor Agents” (Pharmaceutics, 2022).

Test [1] deals with five melanoma cell lines, including mutant B-RAFV600E and wild-type. Set-up: method as in PMID 30691132. To be noted: range over cell lines; read-out: IC50 values against five melanoma cell lines; cited from earlier work.
In a further test the test system is A549 cells. The experiment in a line: CCK-8 antiproliferation assay, A549. The conditions noted are these: Homo sapiens, 48 h; for inhibition at 20 µM: CCK-8, mean ± SD, read-out: Inhibition Rate (%) at 20 μM, A549. Type of test: cell-based. The procedure: (§1) Human lung carcinoma cell lines A549, human cervical cancer cell lines HeLa, human prostate cancer cell lines PC3, human colorectal carcinoma cell lines HCT116, and human liver cells L02 were purchased from the Chinese Academy of Sciences Shanghai Cell Bank (Shanghai, China). HeLa, A549, PC3, HCT116, and L02 cells were cultured in DMEM Dulbecco’s Modified Eagle Medium (DMEM; Gibco Inc., Gaithersburg, MD, USA). All cultures were provided with 10% fetal bovine serum (FBS; YHSM, Beijing, China), 100 IU/mL penicillin, and 100 μg/mL streptomycin, and cells were incubated at 37 °C in an atmosphere of 5% CO2.
(§2) Cell viability was determined using a CCK-8 kit (Apexbio, Houston, TX, USA). […] Subsequently, absorbance was assessed at 450 nm. Three duplicates were set in each group.
(§3) All synthesized quinoxalines compounds were tested for in vitro cytotoxicity against four cancer cell lines (HeLa, PC3, A549, and HCT116). The inhibitory effects of these compounds were evaluated using the CCK-8 assay after treatment with 20 μM of each compound. […] The species of phenyl substituents have a significant effect on the activity. […] By comparison, hydrophobic substitution at the phenyl ring gave derivatives with relatively low potency (QW7–8). In addition, large substituents on the phenyl ring exerted an unfavorable influence on the potency of the compounds (QW8 and QW16).

In the next test the test system is PC3 cells. The experiment in a line: CCK-8 antiproliferation assay, PC3. Type of test: cell-based. The conditions noted are these: Homo sapiens, PC-3, 48 h; for inhibition at 20 µM: CCK-8, mean ± SD, read-out: Inhibition Rate (%) at 20 μM, PC3. The procedure:
as §1, §2, §3

A further test concerns HeLa cells. The experiment in a line: CCK-8 antiproliferation assay, HeLa. To be noted: Homo sapiens, 48 h; for inhibition at 20 µM: CCK-8, mean ± SD, read-out: Inhibition Rate (%) at 20 μM, HeLa. Type of test: cell-based. How it is done: as §1, §2, §3
The subject of a further test is HCT116 cells. The experiment in a line: CCK-8 antiproliferation assay, HCT116. It is filed as cell-based. To be noted: Homo sapiens, HCT-116, 48 h; for inhibition at 20 µM: CCK-8, mean ± SD, read-out: Inhibition Rate (%) at 20 μM, HCT116. How it is done:
as §1, §2, §3

The next test relates to L02 cells. The experiment in a line: CCK-8 cytotoxicity against normal hepatocytes L02. Type of test: cell-based. To be noted: Homo sapiens, 48 h, read-out: IC50 ± SD, L02 (human normal hepatocytes). How it is done:
as §1, §2
To further evaluate the anticancer effect of QW12, we evaluated its cytotoxicity against four human cancer cell lines: HeLa (Human cervical tumor), PC3 (Human prostate tumor), HCT116 (Human colorectal carcinomas), and A549 (Human lung carcinoma). […] Furthermore, the IC50 values of QW12 against PC3 and HCT116 were similar to those of nifuroxazide.

As to `N=C(N)[Se]Cc1nc2ccccc2nc1C[Se]C(=N)N` [Compound 5], in test [1], the IC50 was 0.8 to 3.8 µM.

`O=C(N/N=C/c1ccc([N+](=O)[O-])o1)c1ccc(O)cc1` [Nifuroxazide, nifuroxazide, reference compound]: the inhibition at 20 µM worked out at 91.23 ± 0.04% with A549 cells, 75.29 ± 0.33% in the test with PC3 cells, 80.38 ± 0.17% in the test on HeLa cells and 85.31 ± 0.24% in the test on HCT116 cells. Besides, the IC50 with A549 cells (CCK-8, read-out: IC50 ± SD, A549) amounted to 8.06 ± 0.03 µM; with PC3 cells (CCK-8, read-out: IC50 ± SD, PC3) it was 9.83 ± 0.05 µM; with HeLa cells (HeLa, CCK-8, read-out: IC50 ± SD, HeLa), 16.65 ± 0.08 µM; with HCT116 cells (CCK-8, read-out: IC50 ± SD, HCT116), 10.46 ± 0.04 µM; in the test with L02 cells, 25.3 ± 0.31 µM.

Take `COc1cc(-c2ccc(/C=N/NC(=O)c3ccccc3)o2)c(OC)cc1-c1cnc2ccccc2n1` [QW2, (E)-N’-((5-(2,5-dimethoxy-4-(quinoxalin-2-yl)phenyl)furan-2-yl)methylene)benzohydrazide]: the inhibition at 20 µM in the test with A549 cells worked out at 6.46 ± 0.43%; in the test on PC3 cells it was 1.76 ± 0.23%; in the test with HeLa cells, 8.64 ± 0.26%; in the test with HCT116 cells, 17.8 ± 0.67%.

Turning to `COc1cc(-c2ccc(/C=N/NC(=O)c3ccncc3)o2)c(OC)cc1-c1ccc2nccnc2c1` [QW13, (E)-N’-((5-(2,5-dimethoxy-4-(quinoxalin-6-yl)phenyl)furan-2-yl)methylene)isonicotinohydrazide], the inhibition at 20 µM turned out to be 3.96 ± 0.59% in the test on A549 cells, 18.5 ± 0.3% in the test on PC3 cells, 37.71 ± 0.12% in the test on HeLa cells and 23.2 ± 0.27% with HCT116 cells.

Consider `COc1cc(-c2cc(OC)c3ccccc3c2OC)c(OC)cc1-c1ccc(/C=N/NC(=O)c2ccccn2)o1` [QW22, (E)-N’-((5-(4-(1,4-dimethoxynaphthalen-2-yl)-2,5-dimethoxyphenyl)furan-2-yl)methylene)picolinohydrazide], for which the inhibition at 20 µM with A549 cells came out at 37.5 ± 0.48%; in the test with PC3 cells, 0.33 ± 0.06%; with HeLa cells it was 5.47 ± 0.37%; in the test on HCT116 cells it was 6.58 ± 0.23%.
